Experiment: method code SF-AS, from DOI: 10.1016/0048-3575(79)90081-6
Conditions: not given

Compound | logP
Cc1ccccc1N1C(=O)CCC1=O | 0.29
O=C1CCC(=O)N1c1ccc(F)cc1 | 0.29
O=C1CCC(=O)N1c1ccccc1[N+](=O)[O-] | 0.36
COC(=O)c1cccc(N2C(=O)CCC2=O)c1 | 0.36
O=C1CCC(=O)N1c1ccc([N+](=O)[O-])cc1 | 0.46
CCc1ccccc1N1C(=O)CCC1=O | 0.64
O=C1CCC(=O)N1c1ccccc1Cl | 0.56
O=C1CCC(=O)N1c1ccccc1 | 0.06
O=C1CCC(=O)N1c1ccccc1C(F)(F)F | 0.76
COc1ccccc1N1C(=O)CCC1=O | -0.02
O=C1CCC(=O)N1c1ccc(Br)cc1 | 1.18
Cc1ccc(N2C(=O)CCC2=O)cc1 | 0.58
O=C1CCC(=O)N1c1ccccc1I | 0.8
O=C1CCC(=O)N1c1ccccc1F | 0.22
CCc1ccc(N2C(=O)CCC2=O)cc1 | 1.1
O=C1CCC(=O)N1c1ccccc1Br | 0.65
O=C1CCC(=O)N1c1ccc(Cl)cc1 | 0.96

Further lines, results first:

logP | Compound
0.38 | O=C1CCC(=O)N1c1cccc([N+](=O)[O-])c1
0.02 | N#Cc1cccc(N2C(=O)CCC2=O)c1
1.09 | O=C1CCC(=O)N1c1cccc(Br)c1
0.38 | O=C1CCC(=O)N1c1cccc(F)c1
0.57 | Cc1cccc(N2C(=O)CCC2=O)c1
1.04 | CCc1cccc(N2C(=O)CCC2=O)c1
0.98 | O=C1CCC(=O)N1c1cccc(Cl)c1

Same assay, conditions: pH 7.4

logD | Compound
1.39 | O=C1CCC(=O)N1c1cccc(I)c1

Source: the SangsterLogP compilation
